Experimental data as given in patent US20090298814A1, “Novel salts of conjugated psychotropic drugs and processes of preparing same” (RAMOT AT TEL AVIV UNIVERISTY LTD, priority 2005, published 2009).

Assay: Stability of the free base of the conjugate by HPLC at 20 and 40° C.
Format: physicochemical
Protocol: HPLC analyses were performed on a Water 2695 Separations Module, using a Luna C18 (2) 50 mm×4.6 mm×3 um column, a 5 μl injection volume and a 2487 dual wavelength detector under the following instrumental conditions: Mobile phase A: 0.1% formic acid; Mobile phase B: acetonitrile; Flow rate: 0.5 ml per minute; Mobile phase gradient: 0.0 minutes 90% A, 10% B, 14.0 minutes 20% A, 80% B, 15.0 minutes 90% A, 10% B and 20.0 minutes 90% A, 10% B; Run time: 20 minutes; Detection: UV at 254 nm; Column temperature: 40° C.
The stability of neat free base of the chemical conjugate was determined by performing an HPLC analysis daily during a period of 24 days and determining the appearance of its degradation products perphenazine and GABA. Samples of the neat free base of the conjugate were collected after deprotection of AN-197 with TFA, as described in the preparation of the maleate and oxalate salts, using the general procedure described above in Example 9, were dissolved in the mobile phase solution which was used in the HPLC analysis (2:1 acetonitrile:water, pH 8) and were kept to either at 20° C. or at 40° C.

[1] = in HPLC mobile phase (2:1 acetonitrile:water, pH 8), kept at 20° C., 0 hours
[2] = in HPLC mobile phase (2:1 acetonitrile:water, pH 8), kept at 40° C., 0 hours
[3] = in HPLC mobile phase, kept at 20° C., 24 hours
[4] = in HPLC mobile phase, kept at 20° C., 168 hours
[5] = in HPLC mobile phase, kept at 20° C., 336 hours
[6] = in HPLC mobile phase, kept at 20° C., 504 hours
[7] = in HPLC mobile phase, kept at 20° C., 576 hours
[8] = in HPLC mobile phase, kept at 40° C., 24 hours
[9] = in HPLC mobile phase, kept at 40° C., 168 hours
[10] = in HPLC mobile phase, kept at 40° C., 336 hours
[11] = in HPLC mobile phase, kept at 40° C., 504 hours
[12] = in HPLC mobile phase, kept at 40° C., 576 hours

NCCCC(=O)OCCN1CCN(CCCN2c3ccccc3Sc3ccc(Cl)cc32)CC1 [Free base]
stability in words (at both temperatures (20° C. and 40° C.)): highly unstable | relative peak area degradation to perphenazine (first 24 hours, sample kept at 20° C.): approximately 5% | free base degraded to perphenazine (first 24 hours, sample kept at 40° C.): more than 20% | Free base % area [1]: 98.50 % area | Perphenazine % area [1]: 1.50 % area | Free base % area [2]: 98.50 % area | Perphenazine % area [2]: 1.50 % area | Free base % area [3]: 95.05 % area | Perphenazine % area [3]: 4.95 % area | Free base % area [4]: 74.71 % area | Perphenazine % area [4]: 25.29 % area | Free base % area [5]: 61.63 % area | Perphenazine % area [5]: 38.37 % area | Free base % area [6]: 53.35 % area | Perphenazine % area [6]: 46.65 % area | Free base % area [7]: 47.23 % area | Perphenazine % area [7]: 52.77 % area | Free base % area [8]: 78.74 % area | Perphenazine % area [8]: 21.26 % area | Free base % area [9]: 20.09 % area | Perphenazine % area [9]: 79.91 % area | Free base % area [10]: 6.12 % area | Perphenazine % area [10]: 93.88 % area | Free base % area [11]: 5.52 % area | Perphenazine % area [11]: 94.48 % area | Free base % area [12]: 3.93 % area | Perphenazine % area [12]: 96.07 % area
